The results in this text go back to PMC6423518 (Bioorganic & medicinal chemistry letters, 2018).

“Also recorded” adds a separate entry of the source.

The test system of the test is MDA-MB-231 cells. The test is described as follows: Acridine orange/ethidium bromide. The format is cell-based, human. The following applies: fluorescence microscopy.

On to `COc1cc(/C=C/C(=O)c2c3[nH]c4ccccc4c3cc[n+]2Cc2ccccc2)cc(OC)c1OC.[Br-]` [Compound 13g], for which the “Cell death / apoptosis by AO/EB staining” value was “induces apoptosis; also recorded: markedly induced cell death”.
Under `COc1cccc2c1C(=O)c1c(O)c3c(c(O)c1C2=O)C[C@@](O)(C(=O)CO)C[C@@H]3O[C@H]1C[C@H](N)[C@H](O)[C@H](C)O1` [Doxorubicin, reference compound] stands “morphological changes characteristic of apoptotic cells formation”.
